This note sets out measurements from patent US8772500B2, “TRPV3 modulators” (AbbVie Inc., priority 2011, dated 2014).

Data set [1] in a line: In vitro rat microsomal stability assay. The following applies: for RAT MICROSOMAL STABILITY (% REMAINING AFTER 30 MINUTES): Sprague-Dawley, 0.5 h, 0.5 μM, pH 7.4. Type of data set: in vitro ADME, rat (Sprague-Dawley). A digest of the protocol: (§1)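 Stability readout reflects compound turnover by hepatic microsomes from Sprague-Dawley rats or from humans, according to the assay. Reactions at 37 °C contained NADPH, which was present in the zero-time plates as well.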

A further data set concerns the target T1, human TRPV3 (Homo sapiens, UniProt Q8NET8).
T1 construct: expressed in transfected cells
T1 sequence (Q8NET8 1-790): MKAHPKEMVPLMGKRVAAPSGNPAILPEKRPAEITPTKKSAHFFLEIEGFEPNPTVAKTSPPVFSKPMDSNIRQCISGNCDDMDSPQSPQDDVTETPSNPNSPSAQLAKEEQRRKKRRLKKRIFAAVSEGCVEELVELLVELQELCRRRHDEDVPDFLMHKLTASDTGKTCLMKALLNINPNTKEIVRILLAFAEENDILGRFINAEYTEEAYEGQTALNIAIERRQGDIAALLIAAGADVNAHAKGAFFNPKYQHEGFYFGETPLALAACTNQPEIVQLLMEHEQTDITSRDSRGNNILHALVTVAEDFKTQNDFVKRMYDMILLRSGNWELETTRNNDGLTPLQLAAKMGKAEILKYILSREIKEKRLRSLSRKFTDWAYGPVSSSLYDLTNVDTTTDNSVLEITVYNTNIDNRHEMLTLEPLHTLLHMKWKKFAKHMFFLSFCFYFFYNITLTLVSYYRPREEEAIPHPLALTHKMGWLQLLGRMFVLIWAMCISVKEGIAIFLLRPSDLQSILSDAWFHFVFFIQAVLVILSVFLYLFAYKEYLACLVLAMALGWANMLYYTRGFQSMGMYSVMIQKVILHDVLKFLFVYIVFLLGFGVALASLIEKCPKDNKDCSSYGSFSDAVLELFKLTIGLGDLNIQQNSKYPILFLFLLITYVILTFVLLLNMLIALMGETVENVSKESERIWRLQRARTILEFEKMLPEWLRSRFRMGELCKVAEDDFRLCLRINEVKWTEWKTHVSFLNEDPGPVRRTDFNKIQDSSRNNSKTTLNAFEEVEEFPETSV
Briefly: In vitro antagonism of recombinant human TRPV3 activation (FLIPR Tetra calcium assay, 2-APB as agonist). Type of data set: cell-based. The following applies: HEK293 cells stably expressing human TRPV3, 2-APB 80 μM. A digest of the protocol:
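Readout is FLIPR fluorescence, max minus min as percent of uninhibited 2-APB response, giving IC50 (usually mean of ≥2 runs). Stable human TRPV3 HEK293 cells, Calcium-4 dye-loaded, got test compound then, three minutes later, 80 μM 2-APB (EC80); run length 10 min.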

The nature of data set [2]: In vitro human microsomal stability assay. The class given is in vitro ADME. The conditions noted are these: for HUMAN MICROSOMAL STABILITY (% REMAINING AFTER 30 MINUTES): 0.5 h, 0.5 μM, pH 7.4. A digest of the protocol: as §1
Setting [3] is: 0.5 μM substrate, 0.25 mg/mL microsomal protein, pH 7.4, 37° C., NADPH, 30 minutes.
The mark [4] stands for this setting: range class, read-out: IC50 (reported range).

Read-outs that look alike come from different tables or passages of the source. Some results are limits rather than exact numbers.

Regarding `CC1(O)CC(c2ccc(C(F)(F)F)cc2)([C@H](O)c2ccccn2)C1` (stereo in doubt) [Example 233, trans-3-[(S)-hydroxy(pyridin-2-yl)methyl]-1-methyl-3-[4-(trifluoromethyl)-phenyl]cyclobutanol], in data set [1] (setting [3]), the “RAT […] (% REMAINING AFTER 30 MINUTES)” value is on record as 67%. The 50% inhibitory concentration (IC50) at human TRPV3 (setting [4]) is 5.1 to 20 µM. Besides, the “HUMAN […] (% REMAINING AFTER 30 MINUTES)” value in data set [2] (setting [3]) is given as over 85%.
On to `OC(c1ccccn1)C1(C2=COCCC2)CCC1` (single isomer, unassigned) [Example 270, [1-(3,4-dihydro-2H-pyran-5-yl)cyclobutyl](pyridine-2-yl)methanol], for which, in data set [1], the “RAT MICROSOMAL STABILITY (% REMAINING AFTER 30 MINUTES)” value was found to be 0.48%. Also, the half-maximal inhibitory concentration (IC50) on human TRPV3 (mostly average of n≧2, read-out: IC50 (actual measured value, shown parenthetically)) is 3.94 µM; on human TRPV3 (setting [4]), 1.1 to 5 µM. For the same molecule, the “HUMAN MICROSOMAL STABILITY (% REMAINING AFTER 30 MINUTES)” value in data set [2] stood at 17%.
Regarding `O[C@H](c1ccccn1)[C@@]1(c2ccc(Cl)c(Cl)c2)CCO1` [Example 135, (R)-[(2S)-2-(3,4-dichlorophenyl)oxetan-2-yl](pyridin-2-yl)methanol], the “RAT MICROSOMAL STABILITY (% REMAINING AFTER 30 MINUTES)” value in data set [1] was determined as 3.4%. In addition, on human TRPV3 (setting [4]), the half-inhibitory concentration (IC50) fell in the range of 0.501 to 1 µM. In addition, the “HUMAN MICROSOMAL STABILITY (% REMAINING AFTER 30 MINUTES)” value in data set [2] was found to be 33%.
The matching figures for `OC(c1ccccn1)C1(c2cccc(OC(F)(F)F)c2)CCC1` (stereo not shown) [Example 11, pyridin-2-yl{1-[3-(trifluoromethoxy)phenyl]cyclobutyl}methanol]: 0.80%, 0.05 to 0.5 µM and 0.72%.
Regarding `OC(c1ccccn1)C1(c2ccc(OC(F)(F)F)cc2)CCCO1` (stereo not drawn) [Example 95, (syn)-pyridin-2-yl{2-[4-(trifluoromethoxy)phenyl]tetrahydrofuran-2-yl}-methanol], the “RAT MICROSOMAL STABILITY (% REMAINING AFTER 30 MINUTES)” value in data set [1] is 0.61%. For the same molecule, at human TRPV3 (setting [4]), the concentration for half-maximal inhibition (IC50) was 1.1 to 5 µM. Further, in data set [2], the “HUMAN MICROSOMAL STABILITY (% REMAINING AFTER 30 MINUTES)” value turned out to be 57%.
The matching figures for `CC1(O)CC(c2ccc(C(F)(F)F)cc2)(C(O)c2ccccn2)C1` (single isomer, unassigned) [Example 232]: 67%, 1.1 to 5 µM and 80%.
As to `OC(c1ccccn1)C1(c2ccc(Cl)c(Cl)c2)CCCO1` (stereo not drawn) [Example 99, (syn)-[2-(3,4-dichlorophenyl)tetrahydrofuran-2-yl](pyridin-2-yl)methanol], in data set [1], the “RAT MICROSOMAL STABILITY (% REMAINING AFTER 30 MINUTES)” value is on record as 0.17%. At human TRPV3 (setting [4]), the IC50 was 1.1 to 5 µM. In addition, in data set [2], the “HUMAN MICROSOMAL STABILITY (% REMAINING AFTER 30 MINUTES)” value was 30%.
On to `OC(c1ccccn1)C1(c2nc3ccccc3o2)CCC1` (stereo not shown) [Example 271, [1-(1,3-benzoxazol-2-yl)cyclobutyl](pyridin-2-yl)methanol], for which the “RAT MICROSOMAL STABILITY (% REMAINING AFTER 30 MINUTES)” value in data set [1] was 8.6%. Moreover, the IC50 on human TRPV3 (setting [4]) was in the range of 1.1 to 5 µM. Also, the “HUMAN MICROSOMAL STABILITY (% REMAINING AFTER 30 MINUTES)” value in data set [2] is listed as 62%.
Turning to `O[C@@H](c1ccccn1)C1(c2cc(C(F)(F)F)ccn2)CC(F)(F)C1` [Example 125, (R)-{3,3-difluoro-1-[4-(trifluoromethyl)pyridin-2-yl]cyclobutyl}(pyridin-2-yl)methanol], the “RAT MICROSOMAL STABILITY (% REMAINING AFTER 30 MINUTES)” value in data set [1] came out at 8.8%. Moreover, the IC50 at human TRPV3 (setting [4]) was in the range of 5.1 to 20 µM. In addition, the “HUMAN MICROSOMAL STABILITY (% REMAINING AFTER 30 MINUTES)” value in data set [2] was found to be 53%.
The matching figures for `OC(c1ccccn1)C1(c2cccc(OC(F)(F)F)c2)CC2(C1)OCCO2` (stereo not shown) [Example 235, pyridin-2-yl{2-[3-(trifluoromethoxy)phenyl]-5,8-dioxaspiro[3.4]oct-2-yl}-methanol]: under 0.01%, 1.1 to 5 µM and 20%.
The matching figures for `Cc1cc(C(F)(F)F)cc(C2([C@@H](O)c3ccccn3)CC(=O)C2)n1` [Example 291, 3-[(R)-hydroxy(pyridin-2-yl)methyl]-3-[6-methyl-4-(trifluoromethyl)pyridin-2-yl]cyclobutanone]: 53%, 5.1 to 20 µM and over 85%.
The matching figures for `OC(c1ccccn1)C1(C2CCCC2)CCC1` (stereo not shown) [Example 163, (1-cyclopentylcyclobutyl)(pyridin-2-yl)methanol]: under 0.01%, 1.1 to 5 µM and 0.11%.
